From ChEMBL document CHEMBL3885861, “Open TG-GATES”

Organism: Rattus norvegicus
Assay: Open TG-GATES - Regimen: Single
Format: toxicity, organism-based, Sprague-Dawley
Set-up: regimen Single, gender Male, age 6 weeks
Settings: in vivo, po, route gavage; for APTT / Bas / Eos / Fbg / Hb / Ht / Lym / MCH / MCHC / MCV / Mono / Neu / PT / Plat / RBC / Ret / WBC: tissue Blood; for KIDNEY_L / KIDNEY_R / KIDNEY_TOTAL: tissue Kidney; for LIVER: tissue Liver; for A/G / ALP / ALT / AST / BUN / CRE / Ca / Cl / DBIL / GLC / IP / K / LDH / Na / PL / RALB / TBIL / TC / TG / TP / gamma-GTP: tissue Plasma
[1] = 0 mg/kg, 3 h, dose level Control
[2] = 0 mg/kg, 6 h, dose level Control
[3] = 0 mg/kg, 9 h, dose level Control
[4] = 0 mg/kg, 24 h, dose level Control

## CN1C(=O)OC(C)(C)C1=O [TRIMETHADIONE]
[1]
  TERMINAL_BW: 205.3 g
  APTT: 17.8 s
  Bas: 0.2%
  Eos: 0.8%
  Fbg: 261 mg/dL
  Hb: 13.4 g/dL
  Ht: 40.1%
  Lym: 79.8%
  MCH: 21.8 pg
  MCHC: 33.5%
  MCV: 65.1 fL
  Mono: 3%
  Neu: 16%
  PT: 13.8 s
  Plat: 125.1 x10_4/uL
  RBC: 616.4 x10_4/ul
  Ret: 8.2%
  WBC: 86.1 x10_2/uL
  KIDNEY_L: 1 g
  KIDNEY_R: 0.9 g
  KIDNEY_TOTAL: 1.9 g
  LIVER: 9 g
  A/G: 0.9
  ALP: 1845.4 IU/L
  ALT: 43.8 IU/L
  AST: 85 IU/L
  BUN: 9.6 mg/dL
  CRE: 0.2 mg/dL
  Ca: 10.6 mg/dL
  Cl: 107.4 meq/L
  DBIL: 0.006 mg/dL
  GLC: 181.4 mg/dL
  IP: 8.9 mg/dL
  K: 4.2 meq/L
  LDH: 152 IU/L
  Na: 140.6 meq/L
  PL: 133.8 mg/dL
  RALB: 2.5 g/dL
  TBIL: 0.07 mg/dL
  TC: 72.2 mg/dL
  TG: 42.6 mg/dL
  TP: 5.3 g/dL
  gamma-GTP: 1.2 IU/L
[2]
  TERMINAL_BW: 205.6 g
  APTT: 18.9 s
  Bas: 0%
  Eos: 1%
  Fbg: 284.2 mg/dL
  Hb: 13.1 g/dL
  Ht: 39.6%
  Lym: 77.4%
  MCH: 21.4 pg
  MCHC: 33.2%
  MCV: 64.4 fL
  Mono: 2.4%
  Neu: 19%
  PT: 13.8 s
  Plat: 122.3 x10_4/uL
  RBC: 615.2 x10_4/ul
  Ret: 8.7%
  WBC: 78 x10_2/uL
  KIDNEY_L: 0.9 g
  KIDNEY_R: 0.9 g
  KIDNEY_TOTAL: 1.9 g
  LIVER: 8.6 g
  A/G: 0.9
  ALP: 1304.6 IU/L
  ALT: 34.4 IU/L
  AST: 72.2 IU/L
  BUN: 9 mg/dL
  CRE: 0.2 mg/dL
  Ca: 10.5 mg/dL
  Cl: 108.2 meq/L
  DBIL: 0.002 mg/dL
  GLC: 176.4 mg/dL
  IP: 8.9 mg/dL
  K: 4.2 meq/L
  LDH: 109.8 IU/L
  Na: 140.6 meq/L
  PL: 145.4 mg/dL
  RALB: 2.5 g/dL
  TBIL: 0.064 mg/dL
  TC: 83 mg/dL
  TG: 49.6 mg/dL
  TP: 5.4 g/dL
  gamma-GTP: 1.4 IU/L
[3]
  TERMINAL_BW: 205.5 g
  APTT: 19.5 s
  Bas: 0%
  Eos: 0.8%
  Fbg: 276.8 mg/dL
  Hb: 13.5 g/dL
  Ht: 40.8%
  Lym: 75.2%
  MCH: 20.9 pg
  MCHC: 33%
  MCV: 63.4 fL
  Mono: 2.2%
  Neu: 21.4%
  PT: 13.7 s
  Plat: 114.8 x10_4/uL
  RBC: 642.8 x10_4/ul
  Ret: 7.6%
  WBC: 82.3 x10_2/uL
  KIDNEY_L: 0.9 g
  KIDNEY_R: 0.9 g
  KIDNEY_TOTAL: 1.7 g
  LIVER: 7.9 g
  A/G: 0.9
  ALP: 1637 IU/L
  ALT: 38 IU/L
  AST: 77 IU/L
  BUN: 9.6 mg/dL
  CRE: 0.2 mg/dL
  Ca: 10.5 mg/dL
  Cl: 108 meq/L
  DBIL: 0.002 mg/dL
  GLC: 176.6 mg/dL
  IP: 9.7 mg/dL
  K: 3.9 meq/L
  LDH: 76.4 IU/L
  Na: 141.4 meq/L
  PL: 133.6 mg/dL
  RALB: 2.5 g/dL
  TBIL: 0.064 mg/dL
  TC: 72.8 mg/dL
  TG: 31.2 mg/dL
  TP: 5.4 g/dL
  gamma-GTP: 1.2 IU/L
[4]
  TERMINAL_BW: 223.7 g
  APTT: 17.1 s
  Bas: 0%
  Eos: 1%
  Fbg: 254 mg/dL
  Hb: 13.1 g/dL
  Ht: 39.5%
  Lym: 77.2%
  MCH: 21.8 pg
  MCHC: 33%
  MCV: 66.1 fL
  Mono: 3%
  Neu: 18.2%
  PT: 13.3 s
  Plat: 113.7 x10_4/uL
  RBC: 598 x10_4/ul
  Ret: 7.3%
  WBC: 99.1 x10_2/uL
  KIDNEY_L: 1 g
  KIDNEY_R: 0.9 g
  KIDNEY_TOTAL: 1.9 g
  LIVER: 10.4 g
  A/G: 0.9
  ALP: 1802.2 IU/L
  ALT: 47.2 IU/L
  AST: 74.8 IU/L
  BUN: 15 mg/dL
  CRE: 0.2 mg/dL
  Ca: 10.9 mg/dL
  Cl: 104.8 meq/L
  DBIL: 0.01 mg/dL
  GLC: 165.4 mg/dL
  IP: 7.8 mg/dL
  K: 4 meq/L
  LDH: 82 IU/L
  Na: 142.8 meq/L
  PL: 161 mg/dL
  RALB: 2.6 g/dL
  TBIL: 0.056 mg/dL
  TC: 85.6 mg/dL
  TG: 92.2 mg/dL
  TP: 5.6 g/dL
  gamma-GTP: 1 IU/L
50 mg/kg, 3 h, dose level Low
  TERMINAL_BW: 208.1 g
  APTT: 16.8 s
  Bas: 0%
  Eos: 0.8%
  Fbg: 278 mg/dL
  Hb: 13.4 g/dL
  Ht: 40.2%
  Lym: 78.4%
  MCH: 21.3 pg
  MCHC: 33.3%
  MCV: 64 fL
  Mono: 3%
  Neu: 17.4%
  PT: 13.8 s
  Plat: 129 x10_4/uL
  RBC: 628.4 x10_4/ul
  Ret: 8.1%
  WBC: 86.2 x10_2/uL
  KIDNEY_L: 0.9 g
  KIDNEY_R: 0.9 g
  KIDNEY_TOTAL: 1.8 g
  LIVER: 9.6 g
  A/G: 0.9
  ALP: 1564.2 IU/L
  ALT: 42.6 IU/L
  AST: 80.4 IU/L
  BUN: 10.4 mg/dL
  CRE: 0.2 mg/dL
  Ca: 10.6 mg/dL
  Cl: 108.2 meq/L
  DBIL: 0.006 mg/dL
  GLC: 180.8 mg/dL
  IP: 8.7 mg/dL
  K: 4.1 meq/L
  LDH: 133.8 IU/L
  Na: 141.4 meq/L
  PL: 146.8 mg/dL
  RALB: 2.5 g/dL
  TBIL: 0.064 mg/dL
  TC: 76.4 mg/dL
  TG: 77.8 mg/dL
  TP: 5.4 g/dL
  gamma-GTP: 1.6 IU/L
50 mg/kg, 6 h, dose level Low
  TERMINAL_BW: 207.4 g
  APTT: 17 s
  Bas: 0%
  Eos: 1%
  Fbg: 268.2 mg/dL
  Hb: 13.5 g/dL
  Ht: 40.5%
  Lym: 78.6%
  MCH: 21.6 pg
  MCHC: 33.2%
  MCV: 64.9 fL
  Mono: 2.4%
  Neu: 17.2%
  PT: 13.7 s
  Plat: 120 x10_4/uL
  RBC: 625.4 x10_4/ul
  Ret: 8%
  WBC: 71.3 x10_2/uL
  KIDNEY_L: 0.9 g
  KIDNEY_R: 0.9 g
  KIDNEY_TOTAL: 1.9 g
  LIVER: 8.6 g
  A/G: 0.9
  ALP: 1854.2 IU/L
  ALT: 39.8 IU/L
  AST: 79.8 IU/L
  BUN: 10.8 mg/dL
  CRE: 0.2 mg/dL
  Ca: 10.7 mg/dL
  Cl: 108 meq/L
  DBIL: 0.004 mg/dL
  GLC: 185.6 mg/dL
  IP: 8.9 mg/dL
  K: 4.2 meq/L
  LDH: 130.4 IU/L
  Na: 140.8 meq/L
  PL: 139.4 mg/dL
  RALB: 2.5 g/dL
  TBIL: 0.06 mg/dL
  TC: 77.2 mg/dL
  TG: 54.4 mg/dL
  TP: 5.3 g/dL
  gamma-GTP: 1.2 IU/L
50 mg/kg, 9 h, dose level Low
  TERMINAL_BW: 201.4 g
  APTT: 18.8 s
  Bas: 0%
  Eos: 1%
  Fbg: 285.2 mg/dL
  Hb: 13.2 g/dL
  Ht: 39.8%
  Lym: 78.8%
  MCH: 21.5 pg
  MCHC: 33.2%
  MCV: 64.6 fL
  Mono: 2%
  Neu: 17.6%
  PT: 13.6 s
  Plat: 142.2 x10_4/uL
  RBC: 615.4 x10_4/ul
  Ret: 8.1%
  WBC: 80.8 x10_2/uL
  KIDNEY_L: 0.9 g
  KIDNEY_R: 0.9 g
  KIDNEY_TOTAL: 1.8 g
  LIVER: 7.5 g
  A/G: 0.9
  ALP: 1414 IU/L
  ALT: 34.8 IU/L
  AST: 74.6 IU/L
  BUN: 8.4 mg/dL
  CRE: 0.2 mg/dL
  Ca: 10.4 mg/dL
  Cl: 108.6 meq/L
  DBIL: 0.002 mg/dL
  GLC: 158.8 mg/dL
  IP: 9.7 mg/dL
  K: 3.9 meq/L
  LDH: 99.8 IU/L
  Na: 141.2 meq/L
  PL: 143.2 mg/dL
  RALB: 2.5 g/dL
  TBIL: 0.064 mg/dL
  TC: 84.6 mg/dL
  TG: 33.2 mg/dL
  TP: 5.3 g/dL
  gamma-GTP: 1.2 IU/L
50 mg/kg, 24 h, dose level Low
  TERMINAL_BW: 222.7 g
  APTT: 19.1 s
  Bas: 0%
  Eos: 1%
  Fbg: 267 mg/dL
  Hb: 13.4 g/dL
  Ht: 40.3%
  Lym: 76.4%
  MCH: 21.6 pg
  MCHC: 33.2%
  MCV: 64.9 fL
  Mono: 2.8%
  Neu: 19.4%
  PT: 13.4 s
  Plat: 118.6 x10_4/uL
  RBC: 620 x10_4/ul
  Ret: 7.3%
  WBC: 100.7 x10_2/uL
  KIDNEY_L: 1 g
  KIDNEY_R: 1 g
  KIDNEY_TOTAL: 1.9 g
  LIVER: 10 g
  A/G: 0.8
  ALP: 2138 IU/L
  ALT: 47.4 IU/L
  AST: 77.8 IU/L
  BUN: 14.6 mg/dL
  CRE: 0.2 mg/dL
  Ca: 10.8 mg/dL
  Cl: 105 meq/L
  DBIL: 0.008 mg/dL
  GLC: 173.2 mg/dL
  IP: 7.4 mg/dL
  K: 4 meq/L
  LDH: 112.2 IU/L
  Na: 142.6 meq/L
  PL: 151.4 mg/dL
  RALB: 2.6 g/dL
  TBIL: 0.05 mg/dL
  TC: 77.6 mg/dL
  TG: 99.4 mg/dL
  TP: 5.7 g/dL
  gamma-GTP: 1.2 IU/L
